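Following 48 hours of exposure in 96-well plates, responses at five concentrations were used to interpolate endpoints linearly. GI50 = concentration required for 50% inhibition of growth. TGI: total growth inhibition.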
What was measured:
Experiment in all cases: NCI anticancer screen, dose series, 48 h
MALME-3M melanoma = tested on: MALME-3M melanoma
PC-3 prostate = tested on: PC-3 prostate
IGROV1 ovarian = tested on: IGROV1 ovarian
RPMI-8226 leukemia = tested on: RPMI-8226 leukemia
A498 renal = tested on: A498 renal
SF-539 CNS = tested on: SF-539 CNS
SF-295 CNS = tested on: SF-295 CNS
RXF 393 renal = tested on: RXF 393 renal
MCF7 breast = tested on: MCF7 breast
T-47D breast = tested on: T-47D breast

SMILES	GI50 (MALME-3M melanoma) [µM]	TGI (MALME-3M melanoma) [µM]	GI50 (PC-3 prostate) [µM]	TGI (PC-3 prostate) [µM]	GI50 (IGROV1 ovarian) [µM]	TGI (IGROV1 ovarian) [µM]	GI50 (RPMI-8226 leukemia) [µM]	TGI (RPMI-8226 leukemia) [µM]	GI50 (A498 renal) [µM]	TGI (A498 renal) [µM]	GI50 (SF-539 CNS) [µM]	TGI (SF-539 CNS) [µM]	GI50 (SF-295 CNS) [µM]	TGI (SF-295 CNS) [µM]	GI50 (RXF 393 renal) [µM]	TGI (RXF 393 renal) [µM]	GI50 (MCF7 breast) [µM]	TGI (MCF7 breast) [µM]	GI50 (T-47D breast) [µM]	TGI (T-47D breast) [µM]
CN1CCN(Cc2ccc(-c3cc4ncnc(Nc5ccc(OCc6cccc(F)c6)c(Cl)c5)c4s3)o2)CC1	4.56	9.69	4.13	8.17	3.51	8.34	3.91	9.52	3.5	7.57	4.17	8.55	5.06	10.4	3.33	7.52	3.86	7.81	4.12	9.06
C=C1C(=O)O[C@@H]2C[C@@H]1CC[C@]1(C)O[C@H]1CC[C@@]1(C)O[C@@H]1CC[C@@]2(C)O	22.3	71.2	21.2	94.9	24.3	> 100	12.4	42.7	–	–	35.1	> 100	26.7	75.7	55.9	> 100	99.8	> 100	12.2	33.3
CC(O)C1OC(O)C2OC(C)(C)OC12 (centres undefined)	–	–	–	> 100	–	> 100	–	> 100	–	> 100	–	> 100	–	> 100	–	–	–	> 100	–	> 100
CC1=CC=NN2C(=O)[C@H](C)C2C1 (some centres undefined)	–	> 100	–	–	–	> 100	–	> 100	–	> 100	–	> 100	–	> 100	–	> 100	–	–	–	–
CC1=C(C)C(=O)c2c(c(C(=O)c3ccccc3)c3nc4ccccc4n3c2C)C1=O	–	–	> 100	> 100	55.2	> 100	> 100	> 100	> 100	> 100	> 100	> 100	38.8	> 100	–	–	70.1	> 100	> 100	> 100
COc1ccc2[nH]cc(CCNC(C)=O)c2c1	–	> 100	–	–	–	> 100	–	57.1	–	> 100	–	> 100	–	> 100	–	> 100	–	–	–	–
O=C(Cc1nc2ccccc2s1)C(=O)Nc1ccc(Cl)cc1	–	> 100	–	–	–	> 100	–	> 100	–	> 100	–	> 100	–	> 100	–	–	–	–	–	–
COc1cccc(N2C(=O)c3c(c4[nH]c5ccccc5c4c4ccc(C(C)(C)C)cc34)C2=O)c1	–	> 100	–	–	–	> 100	–	–	–	> 100	–	> 100	–	> 100	–	> 100	–	–	–	–
COc1cc(Nc2cnc3cc(C(F)(F)F)ccc3n2)cc(OC)c1OC	–	> 100	–	–	–	–	–	> 100	–	–	–	> 100	–	> 100	–	> 100	–	–	–	–
CCN(CC)CCCN(c1cc(OC)cc2nccnc12)S(=O)(=O)c1ccc(C)cc1	–	> 100	–	–	–	> 100	–	> 100	–	> 100	–	> 100	–	> 100	–	> 100	–	–	–	–
OCCN(CCO)N=Nc1ccc(-c2nc3ccccc3[nH]2)cc1	–	–	39.4	> 100	87.4	> 100	21.3	52.4	–	–	–	–	17.4	36	27.9	65	–	–	19.8	53.1
COc1ccc(OCC(=O)O)c2c1CCC(C(C)C)C2=O (centres undefined)	–	> 100	–	–	–	> 100	–	> 100	–	> 100	–	> 100	–	> 100	–	–	–	–	–	–
CC(=O)Nc1ccc(/C=C(\NC(=O)c2ccccc2)c2nc3ccc4c(c3[nH]2)C(=O)c2ccccc2C4=O)cc1	–	> 100	–	–	–	> 100	–	> 100	–	> 100	–	> 100	–	> 100	–	49.1	–	–	–	–
COc1nc2c(OC)cccc2c(OC)c1C=O	–	> 100	–	–	–	> 100	–	> 100	–	–	–	> 100	–	> 100	–	> 100	–	–	–	–
O=C1NC(=O)C(C(=O)C(=O)Nc2ccc(Br)cc2)C(=O)N1	–	> 100	–	–	–	> 100	–	> 100	–	> 100	–	> 100	–	> 100	–	> 100	–	–	–	–
CC(C)(C)NNC(=O)/C(=C/c1ccc(Oc2ccc(Cl)c(Cl)c2)cc1)NC(=O)c1ccccc1	–	> 100	–	–	–	> 100	–	45.1	–	> 100	–	> 100	–	> 100	–	> 100	–	–	–	–
O=S(=O)([O-])[O-].[OH3+].[OH3+].[OH3+].[Ru+2].c1ccccc1	> 100	> 100	–	–	> 100	> 100	> 100	> 100	–	–	> 100	> 100	> 100	> 100	–	–	–	–	–	–
CN(N=O)C(=O)Nc1c[nH]c(=O)[nH]c1=O	–	> 100	–	> 100	–	> 100	–	–	–	> 100	–	> 100	–	> 100	–	–	–	> 100	–	> 100
CSC(=S)c1ccc(C(=S)SC)cc1	–	> 100	–	–	–	> 100	–	> 100	–	> 100	–	> 100	–	> 100	–	> 100	–	–	–	–
CCCc1c2c([nH]c(=O)c1C)C(=O)c1[nH]c(=O)c(C)c(CCC)c1C2=O	–	22.2	–	–	–	88.4	–	–	–	> 100	–	> 100	–	> 100	–	69.2	–	–	–	–
CCOC(=N)CC(=O)Nc1ccc(Cl)cc1	–	> 100	–	–	–	> 100	–	–	–	> 100	–	> 100	–	> 100	–	> 100	–	–	–	–
Oc1ccc2ccccc2c1C=NCCCN=Cc1c(O)ccc2ccccc12	6.96	29.7	21.6	> 100	28.1	> 100	4.11	31.1	–	–	17.8	40.8	9.96	42.1	21.8	86.2	17.1	> 100	6.66	43
CN(C)c1ccc(-c2cc(=O)c3ccccc3[nH]2)cc1	–	> 100	–	–	–	> 100	–	> 100	–	–	–	> 100	–	> 100	–	> 100	–	–	–	–

SMILES	GI50 (MALME-3M melanoma) [µM]	TGI (MALME-3M melanoma) [µM]	GI50 (PC-3 prostate) [µM]	TGI (PC-3 prostate) [µM]	GI50 (IGROV1 ovarian) [µM]	TGI (IGROV1 ovarian) [µM]	GI50 (RPMI-8226 leukemia) [µM]	TGI (RPMI-8226 leukemia) [µM]	GI50 (A498 renal) [µM]	TGI (A498 renal) [µM]	GI50 (SF-539 CNS) [µM]	TGI (SF-539 CNS) [µM]	GI50 (SF-295 CNS) [µM]	TGI (SF-295 CNS) [µM]	GI50 (RXF 393 renal) [µM]	TGI (RXF 393 renal) [µM]	GI50 (MCF7 breast) [µM]	TGI (MCF7 breast) [µM]	GI50 (T-47D breast) [µM]	TGI (T-47D breast) [µM]
CCCCCCCCCCCCN1C(C)=CS/C1=C\C=C\c1scc(C)[n+]1CCCCCCCCCCCC	–	–	1.03	3.46	–	–	–	–	0.822	4.09	2.02	8.69	1.53	5.35	1.42	5.29	–	–	0.817	6.77
Oc1ccc(C(c2ccccc2)(c2ccccc2)c2ccccc2)cc1	27.2	68.9	20.6	36.1	14.3	27.6	22	45.5	20.5	35.1	17.6	31.9	27.2	> 100	10.4	25	10.3	34.3	–	–
C/C(=N\NC(=S)N1CCCCCC1)c1nccnc1C	–	> 100	–	–	–	–	–	> 100	–	12.9	–	1.65	–	16.6	–	7.06	–	–	–	–
O=C(O)c1ccc(NC(=O)C2C(=O)C(=O)N(c3ccc(C(=O)O)cc3)C2=O)cc1 (centres undefined)	–	> 100	–	–	–	> 100	–	> 100	–	> 100	–	> 100	–	> 100	–	> 100	–	–	–	–
Cc1ccc(S(=O)(=O)N/N=C(\CCN2CCCC2)CC(c2ccccc2)c2c(O)c3ccccc3oc2=O)cc1 (centres undefined)	–	> 100	–	–	–	> 100	–	> 100	–	> 100	–	> 100	–	> 100	–	> 100	–	–	–	–
O=[N+]([O-])c1cnc(Sc2ccncn2)c([N+](=O)[O-])c1	1.83	3.61	15.1	29.2	16.7	31.4	–	–	24.9	65.3	15.3	28.9	> 100	> 100	1.97	4.17	5.96	24.9	1.78	3.8
CC(=O)N(C)OC(=O)CC(=O)c1ccccc1	–	> 100	–	–	–	> 100	–	> 100	–	–	–	> 100	–	> 100	–	> 100	–	–	–	–
O=P(c1ccccc1)(c1ccccc1)C1CC=C(c2ccccc2)C2(CCCC2)C1 (centres undefined)	–	> 100	–	–	–	> 100	–	52.1	–	> 100	–	> 100	–	> 100	–	> 100	–	–	–	–
CCCCCCCCCCCCCS(=O)(=O)O	–	> 100	–	–	–	> 100	–	–	–	> 100	–	> 100	–	> 100	–	> 100	–	–	–	–
CC(Cn1c2c3ccccc3ccc2c2oc(=O)c3ccccc3c21)N(C)C (centres undefined)	–	> 100	–	–	–	> 100	–	> 100	–	–	–	> 100	–	> 100	–	–	–	–	–	–
O=C(Nc1ccc(Cl)c(C(F)(F)F)c1)C(=O)C(C(=O)/C=C/c1ccccc1)C1OC(=O)c2ccccc21 (centres undefined)	–	> 100	–	–	–	> 100	–	> 100	–	> 100	–	–	–	> 100	–	> 100	–	–	–	–
CNc1ccccc1C(=O)N/N=C/C=C/c1ccccc1	9.91	97.4	2.56	> 100	4.41	> 100	2.68	> 100	0.39	5.81	1.09	4.91	1.57	> 54.3	–	–	0.49	> 100	3.48	> 86.9
C/C(CN1C(=O)c2ccccc2C1=O)=N\NS(=O)(=O)c1cccc([N+](=O)[O-])c1	–	> 100	–	–	–	> 100	–	> 100	–	> 100	–	> 100	–	> 100	–	> 100	–	–	–	–
S=CN1CCCCC1	–	> 100	–	> 100	–	> 100	–	> 100	–	> 100	–	> 100	–	> 100	–	–	–	> 100	–	> 100
O=C1C2C(C(=O)N1O)N(Cc1ccccc1)C(=O)N2Cc1ccccc1 (centres undefined)	–	> 100	–	–	–	> 100	–	> 100	–	> 100	–	> 100	–	> 100	–	> 100	–	–	–	–
CC(C)C(C(=O)O)N(CC1(O)OCC(O)C(O)C1O)N=O (centres undefined)	–	> 100	–	–	–	> 100	–	> 100	–	> 100	–	> 100	–	–	–	> 100	–	–	–	–
CCNc1nnc(CSc2nc(-c3ccccc3)c(-c3ccccc3)[nH]2)s1	–	48.4	–	–	–	–	–	54.9	–	–	–	33.2	–	34.1	–	–	–	–	–	–
Nc1ccccc1C#CC#Cc1ccccc1N	35.2	61.3	23.1	> 100	18.6	86.2	8.08	> 100	–	–	–	–	2.76	> 100	25.6	67.7	–	–	> 100	> 100
Cc1ccc(NC(=O)c2[nH]c(=S)nc(N)c2-c2ccccc2C)cc1C	–	> 100	–	–	–	> 100	–	> 100	–	> 100	–	> 100	–	–	–	> 100	–	–	–	–
CN/N=C(/Cc1occc(=O)c1O)C(=O)Nc1ccc(C)c(C)c1	–	> 100	–	–	–	> 100	–	> 100	–	> 100	–	> 100	–	> 100	–	–	–	–	–	–
CC(=O)N1CCC2(C=Nc3ccccc32)CC1	–	> 100	–	–	–	> 100	–	> 100	–	> 100	–	> 100	–	> 100	–	–	–	–	–	–
O=C(/C=C/c1ccco1)c1ccc(Nc2nc(Nc3ccc(F)cc3)nc(Nc3ccc(Cl)cc3)n2)cc1	31.9	> 66.2	1.54	> 37.9	25.8	> 81	2.75	> 82.4	2.39	> 65.1	14.2	28.3	–	–	7.09	45.9	1.84	34.1	20.3	> 100
CN(C)/[N+]([O-])=N/Oc1cc(Nc2cccc(C(=O)O)c2)c([N+](=O)[O-])cc1[N+](=O)[O-]	–	–	> 100	> 100	41.1	> 100	> 100	> 100	–	–	> 100	> 100	> 100	> 100	> 100	> 100	36.8	> 100	–	–
